Assay [1] has as its system mouse model of AngII-induced myocardial fibrosis. In words: AngII-induced myocardial fibrosis mouse model, 4 weeks, Masson's trichrome fibrosis, wild type mice. On the set-up: key to Total fibrosis male in vivo WT with EF-1 / Total fibrosis female in vivo WT with EF-1 / Total fibrosis male in vivo WT with NA-1: fibrotic (blue-stained) area / total area. The class given is in vivo. On the procedure: Four weeks after implantation, cardiac ultrasound was performed, mice were euthanized, and hearts were collected. A similar set-up was used for the 1-week study (Alzet, model 1007D) in male mice (n = 9-10 mice in every group).
Hearts were fixed in 4% PFA, paraffin-embedded, and cut into 5-µm sections. Images were acquired with an Olympus BX43 microscope (Olympus Stream Motion Software) or a CELENA® S Digital Imaging System and analyzed with ImageJ 2.14.0 software. Collagen distribution was visualized by Masson’s trichrome staining. Cardiac total fibrosis was expressed as the ratio of positively stained fibrotic area (blue) to the total area and perivascular fibrosis as the ratio of fibrotic area to vascular lumen area. Scar size was determined by measuring the scar length over the […]. Hypertrophy and vascularisation were visualized via an isolectin-B4/WGA/DAPI staining. Quantification was performed by a person blinded to the treatment protocol.

Assay [2] has as its system iAMs. In words: H2O2-induced cell death assay in iAMs (Toxilight), also with LY294002. Particulars: H2O2 100 µM; for total cell death of iAMs (percentage of total dead cells): NA-1, 4 h, single replicates.
Method: Subsequently, H2O2 (100 µM; Merck, H1009) was added and the cells were incubated for 4 h at 37 °C. All wells contained DMSO at a final concentration of 0.9%. […] After incubation at RT for 5 min, luminescence was measured using the Luminoskan Ascent.
Assay [3] has as its system iAMs. In words: EdU proliferation assay in proliferating iAMs. It is filed as cell-based, rat. On the procedure: EdU proliferation assay was performed using the Click-iT^TM EdU Cell Proliferation Kit for Imaging (ThermoFisher Scientific, C10337) following the protocol. Proliferating iAMs were seeded at a density of 10^5 cells/well in proliferating medium in 24-well plates and incubated overnight. […] Afterwards, the cell culture media were then replaced with 10 µM EdU in proliferating medium and incubated for 24 h at 37 °C. Next, iAMs were fixed with 4% PFA for 30 min at 4 °C. Cells were washed thrice with PBS, permeabilized by incubation with 0.1% Triton X-100 for 10 min at RT and counterstained with DAPI. Images were obtained by fluorescence microscopy (Celena S).

Assay [4] relates to HCFs. In words: RT-qPCR on signaling pathway genes in HCFs. It is filed as cell-based, human. Particulars: single replicates. On the procedure:
RNA was extracted using Nucleospin RNA XS (Macherey-Nagel, 740902.50) according to the manufacturer’s instructions. For cDNA synthesis, total RNA was added to a mixture containing buffer with random hexamers and reverse transcriptase enzyme (TaqMan reverse transcription reagents, Applied biosystems, N8080234) after which samples were incubated for 10 min at 25 °C, 30 min at 48 °C, and 5 min at 95 °C. RT-qPCR was performed on QuantStudio 3 Real-time PCR system (Applied Biosystems) using Taqman Universal PCR Master Mix (Applied Biosystems, 4304437) and Taqman primers according to the manufacturer’s instructions. Settings were as follows: […] followed by 10 min at 95 °C, 40 cycles (45 cycles for ERBB4) of denaturation at 95 °C for 15 s, and 1 min at 60 °C. All reactions were run in duplicate, and all data were normalized against housekeeping genes glyceraldehyde-3-phosphate dehydrogenase (GAPDH), beta-actin (ACTB), or phosphoglycerate kinase 1 (PGK1). Expression levels were calculated using the comparative cycle method and expressed as fold change (FC) to appropriate controls. The following TaqMan primers were used (Thermo Fisher Scientific): GAPDH (Hs02758991_g1, Mm99999915_g1 and Rn01775763_g1), PGK1 (Hs99999906_m1), ID2 (Hs04187239_m1), BMPR1B (Hs01010965_m1), CACNA2D4 (Hs00297782_m1), DUSP2 (Hs00358879_m1), NR4A1 (Hs00374226_m1), SGK1 (Hs00178612_m1), COL1A1 (Mm00801666_g1), COL3A1 (Hs00943809_m1 and Mm00802305_g1), ERBB4 (Hs00955525_m1 and Rn00572447_m1), ACTB (Mm02619580_g1) and ANP (Mm01255747_g1).
In general terms: In qPCR the cycle at which signal appears reflects the starting amount.

In assay [5] the target is T1, ERBB4/ERBB4 (Homo sapiens, UniProt Q15303).
T1 construct: host or cells: U2OS (osteosarcoma cells), PathHunter engineered line
In words: NRG1 dose-response in ERBB4/ERBB4 dimerization assay with co-administration of EF-1. It is filed as cell-based. Particulars: no EF-1. How it is done: U2OS ERBB4/ERBB4 dimerization cells were seeded at a density of 5 × 10^4 cells/well in 100 µL Cell Plating 0 Reagent, in white 96-well plates (PerkinElmer, 6005680) and incubated for 24 h at 37 °C, 5% CO2. […] Next, 110 µL PathHunter Flash Detection Reagent was added to each well and incubated at RT for 1 h after which the luminescence signal was measured using the Luminoskan Ascent (Thermo Fisher Scientific). Dose-response curves of the compounds were performed in 2-fold (0.0625–32 µM). The same experimental set-up was used for the U2OS ERBB2/ERBB4, U2OS ERBB2/ERBB3 and U2OS ERBB1/ERBB1 dimerization cell lines. […]
(b) DRC showing t he effect of NRG1 (full line with full circle) on the […]
1x10-6 M NRG1; n=5 biological replicates for NRG1 + EF -1 10 µM for all concentrations of NRG1, except […]
concentrations of NRG1, except n=2 for 3x10-7 M and 1x10-6 M NRG1). All data are presented as mean ± SD. Source data are provided as a Source Data file . CPD, compound; DRC; dose response curve; FC, fold change; F-NRG1, fluorescent ly labeled NRG1; M, molar concentration; NRG1, neuregulin-1; Veh, […]

“And” between values parts separate entries of the source, which are not always exact repeats. Identical values can stand only once.

T1 sequence (Q15303 26-1308): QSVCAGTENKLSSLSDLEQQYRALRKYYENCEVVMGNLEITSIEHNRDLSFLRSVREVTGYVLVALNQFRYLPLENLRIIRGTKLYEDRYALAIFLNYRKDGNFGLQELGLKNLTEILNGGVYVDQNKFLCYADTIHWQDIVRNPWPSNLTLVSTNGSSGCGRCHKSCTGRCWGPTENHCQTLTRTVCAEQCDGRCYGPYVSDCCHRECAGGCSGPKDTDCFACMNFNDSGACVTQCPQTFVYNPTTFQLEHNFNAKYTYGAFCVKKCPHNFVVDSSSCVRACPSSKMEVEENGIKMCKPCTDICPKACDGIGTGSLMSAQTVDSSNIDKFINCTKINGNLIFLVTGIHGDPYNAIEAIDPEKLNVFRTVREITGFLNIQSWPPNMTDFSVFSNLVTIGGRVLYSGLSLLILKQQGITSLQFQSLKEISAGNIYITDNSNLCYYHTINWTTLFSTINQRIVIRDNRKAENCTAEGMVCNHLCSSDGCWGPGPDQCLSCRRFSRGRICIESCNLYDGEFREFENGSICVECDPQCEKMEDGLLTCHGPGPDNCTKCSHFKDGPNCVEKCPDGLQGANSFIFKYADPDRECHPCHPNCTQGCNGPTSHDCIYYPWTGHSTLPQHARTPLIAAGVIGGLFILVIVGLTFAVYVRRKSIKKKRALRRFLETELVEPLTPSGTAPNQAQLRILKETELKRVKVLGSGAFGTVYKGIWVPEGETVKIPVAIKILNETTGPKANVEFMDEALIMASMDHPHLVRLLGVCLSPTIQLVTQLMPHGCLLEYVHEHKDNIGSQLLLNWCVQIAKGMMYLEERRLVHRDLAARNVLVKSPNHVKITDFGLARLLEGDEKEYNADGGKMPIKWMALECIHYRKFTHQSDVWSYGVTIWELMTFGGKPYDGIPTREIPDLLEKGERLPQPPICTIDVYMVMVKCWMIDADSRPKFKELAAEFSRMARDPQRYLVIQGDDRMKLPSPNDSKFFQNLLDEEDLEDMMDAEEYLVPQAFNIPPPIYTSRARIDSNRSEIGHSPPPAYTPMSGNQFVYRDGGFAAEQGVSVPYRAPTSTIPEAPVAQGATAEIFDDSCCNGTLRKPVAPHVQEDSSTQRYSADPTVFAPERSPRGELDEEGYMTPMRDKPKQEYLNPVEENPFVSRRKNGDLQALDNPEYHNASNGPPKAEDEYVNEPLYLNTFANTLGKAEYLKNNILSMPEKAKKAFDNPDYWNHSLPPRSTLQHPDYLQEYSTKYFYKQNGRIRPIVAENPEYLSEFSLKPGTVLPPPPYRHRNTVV
T1 sequence (Q15303 26-1308): as above

On to `Cc1sc2nc(SC(C)C(=O)NCc3ccc4c(c3)OCO4)n(-c3ccccc3)c(=O)c2c1C` (stereo not drawn) [NA-1], for which the “Perivascular fibrosis male in vivo WT with NA-1” value in assay [1] (AngII/NA-1, individual animals) is 1.271 and 2.289 and 2.187 and 2.2768. Moreover, the “Total fibrosis male in vivo WT with NA-1” value in assay [1] (AngII/NA-1, individual animals) is 7.18 and 11.9815 and 8.108 and 8.95. Moreover, the “effect on AngII-induced interstitial and perivascular fibrosis (in words)” value in assay [1] (male wild type mice, NA-1 2 mg/kg/day) was “did not significantly prevent interstitial or perivascular AngII-induced fibrosis”. Also, the “effect on cardiomyocyte survival (in words)” value in assay [2] is given as “did not have a significant effect on cardiomyocyte survival”. The “total cell death of iAMs (percentage of total dead cells)” value is 60.0225 and 62.2886 and 68.0221 in assay [2] (1e-6 M); 64.78 and 60.57 and 53.32 and 58.95 in assay [2] (4e-6 M); 63.16 and 63.84 and 49.27 and 56.61 in assay [2] (8e-6 M); 61.57 and 64.49 and 50.09 and 59.17 in assay [2] (1.6e-5 M); 63.24 and 58.6 and 49.06 and 56.03 in assay [2] (3.2e-5 M).

For the molecule neuregulin-1 [NRG1], the “EdU-positive nuclei compared to the vehicle group (in words)” value in assay [3] (EF-1 32 µM or NRG1 0.1 µM, 24 h) is given as “significant decrease in EdU-positive nuclei”. Also, the “In vitro EdU-positive cell count” value in assay [3] (individual replicates) was 0.7207 and 0.8932 and 0.8227 and 0.7581 and 0.7231. In addition, in assay [4], the “BMPR1B mRNA, normalized FC compared to vehicle” value is 0.8467 and 0.8788 and 0.6722 and 0.547; the “CACNA2D4 mRNA, normalized FC compared to vehicle” value was 0.587 and 0.7244 and 0.5309 and 0.2575; the “DUSP2 mRNA, normalized FC compared to vehicle” value was 0.9928 and 0.6481 and 0.6778 and 0.7386; the “ID2 mRNA, normalized FC compared to vehicle” value is 0.8573 and 0.8679 and 0.8306 and 0.7992. In addition, in assay [4], the “NR4A1 mRNA, normalized FC compared to vehicle” value is 0.5297 and 0.9275 and 0.7063 and 0.8111; the “SGK1 mRNA, normalized FC compared to vehicle” value is 0.7797 and 0.9219 and 0.8239 and 0.6521. For the same molecule, the “Chemiluminescence-based competition assay with NRG1 and EF-1, signal” value in assay [5] (NRG1 1e-11 M) is 0. For the same molecule, the “Chemiluminescence-based competition assay with NRG1 and EF-1, signal” value in assay [5] (NRG1 1e-7 M) is 101.055 and 98.9454 and 97.307 and 102.693 and 100 and 86.6131 and 109.42. The “Chemiluminescence-based competition assay with NRG1 and EF-1, signal” value in assay [5] (NRG1 3e-7 M) was 95.7195 and 99.6882 and 104.291 and 93.5081 and 90.5392 and 120.599 and 107.787. The “Chemiluminescence-based competition assay with NRG1 and EF-1, signal” value in assay [5] (NRG1 1e-6 M) is 99.5216 and 99.741 and 109.693 and 98.1524.

Values taken from paper PMC11724075, “Small-molecule-induced ERBB4 activation to treat heart failure” (Nature Communications, 2025).
